Results on 1 compound are retold here after patent publication EP4420661B1, “SMALL MOLECULES TARGETING GLYCOPROTEIN VI AS ANTIPLATELET AGENTS FOR USE IN THE PREVENTION AND/OR TREATMENT OF THROMBOSIS AND ASSOCIATED PATHOLOGIES” (Universidade de Santiago de Compostela, priority 2023, dated 2024).

The structures appear in SMILES notation.

Holding throughout (type): in vitro ADME
Data set [1] in a line: plasmatic stability, mouse plasma. Also noted: unit not given beside the values. As for the experimental part:
Rat, human, mouse and dog plasma pooled from healthy donors extracted in citrate tubes was employed in the assay.
[…] Then 300µl Acetonitrile were added for precipitating plasma protein, and the plate was centrifuged at 4000 g for 60 min at 4°C.
Supernatant was taken and analyzed by UPLC/MS/MS for sample quantification. Stationary phase: Reverse phase ACQUITY BEH C18 1.7µm 2.1x50mm (Waters) Mobile phase: 0.1% Formic acid water/0.1% formic acid in acetonitrile Gradient: Table 4: UPLC gradient / Plasmatic stability assay
The chromatographic equipment employed was an UPLC QSM Waters Acquity. Compound concentrations were calculated from the MS peak areas.

The nature of data set [2]: metabolic stability, rat microsomes. Conditions: Rat microsomes. The procedure: Microsomes from Tebu-bio Xenotech were employed in the assay, having a content of 20 mg/ml of protein. The following quantities were added to each well of a 96-well microplate. Table 6: Metabolic stability assay.
Plates were incubated at 37°C and 75 µL samples were taken at 0, 10, 20, 40 and 60 minutes.
Samples were transferred to a microplate and 75 µl Acetonitrile + IS(Rolipram) were added for inactivating the microsomes, and 30 µl of H2O with 0.5% formic acid for improving the chromatographic conditions and kept at 4°C. When all the samples were taken the plate was centrifuged at […] for 30 min at 15°C. Stationary phase: ACQUITY BEH C18 1.7µm 2.1x50mm (Waters) Mobile phase: A: 0.1% formic; B: acetonitrile+0.1% formic acid Gradient: Table 6: UPLC gradient / Metabolic stability assay
Metabolic stability was calculated from the logarithm of the remaining compound at each of the times evaluated.

Data set [3] is described as follows: metabolic stability, mouse microsomes.
Description: Samples were transferred to a microplate and 75 µl Acetonitrile + IS(Rolipram) were added for inactivating the microsomes, and 30 µl of H2O with 0.5% formic acid for improving the chromatographic conditions and kept at 4°C. When all the samples were taken the plate was centrifuged at 46000 g for 30 min at 15°C. Stationary phase: ACQUITY BEH C18 1.7µm 2.1x50mm (Waters) Mobile phase: A: 0.1% formic; B: acetonitrile+0.1% formic acid Gradient: Table 6: UPLC gradient / Metabolic stability assay
Data set [4] can be described thus: plasma protein binding, Rapid Equilibrium Dialysis (RED), rat. The conditions noted are these: 4h at 37°C. As for the experimental part:
(§1) Plasma from Seralab was employed in the assay and was carried out by employing Rapid Equilibrium Dialysis (RED) from Thermo Scientific.
(§2) The compounds were dissolved at 5 µM in plasma and added to the corresponding insert of the RED device. Dialysis buffer was added to the corresponding insert of the RED device. Plate was incubated for 4h at 37°C.
(§3) After the incubation period 50 µL aliquots of each chamber were transferred to empty vials. 50 µL of dialysis buffer were added to the plasma samples and 50 µL of plasma were added to the buffer samples. 300 µL of acetonitrile were added to all the samples and centrifuged at 4000 rpm 100 µL aliquots of the supernatants were transferred to a LC analysis plate. Samples were analyzed in a UPLC/MS/MS. Stationary phase: Acquity UPLC® BEHC18 1,7 µm (2.1 mm x 50 mm) (Waters). Gradient: A (H2O + 0.1% Formic acid); B (ACN + 0.1% Formic acid); Flow: 0.6mL/min Table 8: UPLC gradient / Protein binding assay
(§4) The chromatographic equipment employed was an ACQUITY UPLC / Xevo TQD System. Compound concentrations were calculated from the MS peak areas. Table 9: Plasma protein binding of the compounds of formula (I) in rat, mice, dogs and humans / (*) low recovery

Data set [5] relates to Plasma protein. The description is as above. The conditions noted are these: 5 µM, 4h at 37°C. As for the experimental part: as §1, §2, §3, §4
The nature of data set [6]: plasma protein binding, Rapid Equilibrium Dialysis (RED), human. Conditions: 4h at 37°C. As for the experimental part:
as §1, §2, §3, §4

Data set [7] concerns Plasma protein. The description is as above. Conditions: 5 µM, 4h at 37°C. As for the experimental part:
as §1, §2, §3, §4

The nature of data set [8]: plasma protein binding, Rapid Equilibrium Dialysis (RED), mouse. The conditions noted are these: 4h at 37°C, (*) low recovery for (If). The procedure: as §1, §2, §3, §4
(In equilibrium dialysis only unbound substance equilibrates across the membrane.)

In data set [9] the test system is Plasma protein. The description is as above. The conditions noted are these: 5 µM, 4h at 37°C, (*) low recovery for (If). The procedure: as §1, §2, §3, §4

The term half-life denotes how long it takes for the measured level to halve. The term microsomal CLint denotes the capacity of the preparation to metabolise the compound, expressed as a volume cleared per time. By fraction unbound is commonly meant free concentration divided by total concentration. For the compound `O=C(Cc1ccc2c(c1)OCCO2)Nc1nc(-c2ccc3c(c2)CCC(=O)N3)cs1` [Compound (If)], the Plasmatic stability in data set [1] (10µM, t 0 min) came to 100.0; in [1] (10µM, t 60 min) it was 67.8; in data set [1] (10µM, t 120 min), 41.6; in data set [1] (10µM, t 360 min) it was 5.6; in [1] (100µM, t 0 min), 100.0; in [1] (100µM, t 60 min), 77.6. Also, the Plasmatic stability worked out at 57.5 in data set [1] (100µM, t 120 min) and 9.6 in [1] (100µM, t 360 min). Besides, the figures for the half-life in data set [2] and in data set [3] were 62.1 min and 109 min, respectively. Besides, the microsomal CLint in data set [2] was 8.89 µL/min/mg; in data set [3], 7.09 µL/min/mg. The entries for the “% remanent (*)” value in data set [2] ((*) sampling time 60 min) and in [3] ((*) sampling time 60 min) were 49.9% and 71.6%, respectively. The fraction unbound at 4 h, 5 µM in data set [4] is 0.001; in [6] it was 0.0011; in [8], 0.0046. Moreover, the values for the Unbound fraction with Plasma protein [5], in the data set on Plasma protein [7] and with Plasma protein [9] were 0.10%, 0.11% and 0.46%, respectively.
